System: streptococcus infection
Assay: Treatment of a patient suffering from a streptococcus infection (case report)
Settings: treatment repeated 4 times more

phenoxymethylpenicillinsodium
Improvement of streptococcus infection after repeated treatment: no significant improvement
